Source: US9820943B2, “Micronized amoxicillin” (DSM SINOCHEM PHARMACEUTICALS NETHERLANDS B.V., priority 2013, dated 2017)

Test: Powder dissolution, visual determination of clarity in drinking water
Type: physicochemical
Settings: 3.0 g in 1000 mL drinking water, stirred 2 min at 300±10 rpm, 30±1° C.; trihydrate
Description: Non-micronized amoxicillin trihydrate (3.0 g) was added to a 2 L beaker and drinking water (1000 mL) was added. The mixture was stirred for 2 min at 300±10 rpm at 30±1° C. After two minutes the stirrer was stopped. The same procedure was applied to a sample of micronized amoxicillin trihydrate. Both mixtures were visually observed.

SMILES | Visual appearance of the mixture (clarity)
CC1(C)S[C@@H]2[C@H](NC(=O)[C@H](N)c3ccc(O)cc3)C(=O)N2[C@H]1C(=O)O [Non-micronized amoxicillin trihydrate, amoxicillin trihydrate] | cloudy
CC1(C)S[C@@H]2[C@H](NC(=O)[C@H](N)c3ccc(O)cc3)C(=O)N2[C@H]1C(=O)O [micronized amoxicillin trihydrate, amoxicillin trihydrate] | clear
